According to US20060228297A1, “Thorium-227 for use in radiotherapy of soft tissue disease” (priority 2003, published 2006):

What was measured:
[1] = test system: patients with breast or prostate cancer; experiment: Phase I study of ^223Ra, single doses, neutrophil cell fractions (Example 8); format: in vivo, humans; settings: for Days to nadir (neutrophil cell fraction) / ˜% of baseline at nadir (neutrophil cell fraction): humans
Text: In a phase I study in patients with breast or prostate cancer, dose levels of 37, 74, 130, 170 and 200 kBq/kg of ^223Ra were given as single doses. Neutrophil cell fractions were monitored as a sensitive measure of haematological toxicity.

[2] = then concentrated in the skeleton or excreted via intestinal and renal routes; cited from earlier work
humans = experiment: Estimate of ^223Ra toxicity from prior art (translated from ^224Ra dog data); settings: expected for humans, assuming similar haematological toxicity in dogs and humans
Text: Because of the lack of human data on toxicity of radium-223 and radium-224, an assumed radiotoxicity for ^223Ra can be derived as follows, using published data for radium-224 in dogs. The decay series (including the decays of daughter nuclides) of both ^224Ra and ^223Ra causes an emission of four alpha panicles per radium atoms. The total alpha particle doses from ^223Ra and ^224Ra in equilibrium with daughters are approximately 26.3 and 27.1 MeV per transformation respectively and are therefore closely equivalent. The half-lives of ^224Ra is 3.62 days and for ^223Ra it is 11.43 days. This means that per activity unit injected, the skeletal dose from ^223Ra would be approximately 3.1 times that from ^224Ra, taking into account alpha energy and half-life differences, and assuming long-term biological retention of the radionuclide (i.e., the clearance is governed by the physical half-life of the radionuclide). This is a valid assumption because Ra is a Ca analogue and is readily incorporated into the skeleton.
At 350 kBq/kg death, caused by haematological dyscrasia resulting from bone marrow destruction, occurred in some subjects (3 dogs out of 8). It may therefore be assumed that the maximum tolerable dose of ^224Ra is between 120 and 350 kBq/kg in dogs. Translated into ^223Ra, as described above, this would correspond to 39-113 kBq/kg of ^223Ra. […]

[223Ra] [^223Ra, radium-223]
Dose that can be administered and tolerated ([1]; human subjects): at least 200 kBq/kg
Days to nadir (neutrophil cell fraction) ([1]; 37 kBq/kg single dose): 14 days
˜% of baseline at nadir (neutrophil cell fraction) ([1]; 37 kBq/kg single dose): ~60%
Days to nadir (neutrophil cell fraction) ([1]; 74 kBq/kg single dose): 14 days
˜% of baseline at nadir (neutrophil cell fraction) ([1]; 74 kBq/kg single dose): ~60%
Days to nadir (neutrophil cell fraction) ([1]; 130 kBq/kg single dose): 28 days
˜% of baseline at nadir (neutrophil cell fraction) ([1]; 130 kBq/kg single dose): ~50%
Days to nadir (neutrophil cell fraction) ([1]; 170 kBq/kg single dose): 21 days
˜% of baseline at nadir (neutrophil cell fraction) ([1]; 170 kBq/kg single dose): ~40%
Days to nadir (neutrophil cell fraction) ([1]; 200 kBq/kg single dose): 21 days
˜% of baseline at nadir (neutrophil cell fraction) ([1]; 200 kBq/kg single dose): ~30%
Blood clearance [2]: very rapidly
Maximum tolerable dose, translated from ^224Ra dog data (humans): 39-113 kBq/kg
